We go through one compound from ChEMBL document CHEMBL5523725, “Fragment-Based Anti-inflammatory Agent Design and Target Identification: Discovery of AF-45 as an IRAK4 Inhibitor to Treat Ulcerative Colitis and Acute Lung Injury” (J Med Chem, 2024).

Calls of active or inactive are those of the source. The calls are words filed in the database; no cut-off is given here.

A short description of data set [1]: Drug uptake in male Sprague-Dawley rat blood at 1 mg/kg, iv administered via tail vein and measured after 24 hrs. Type of data set: ADME, organism-based. The note with it: in vivo.
Data set [2] deals with Mus musculus. In words: Antiinflammatory activity in male C57BL/6 mouse model of DSS-induced ulcerative colitis assessed as reduction in TNF-alpha level in serum at 20 mg/kg, po administered for 11 days with subsequent administration of DSS for 8 days by ELISA. Conditions: time 11.0 day. Type of data set: functional, organism-based. In general terms: ELISA stands for enzyme-linked immunosorbent assay.

The subject of data set [3] is Mus musculus. As to the kind of experiment: Antiinflammatory activity in male C57BL/6 mouse model of DSS-induced ulcerative colitis assessed as restoration of protein status at 10 to 20 mg/kg, po administered for 11 days with subsequent administration of DSS for 8 days by H and E staining based analysis. Type of data set: functional, organism-based. Conditions: dose 10-20 mg/kg, time 11.0 day.

For data set [4], the target named is T1, Inhibitor of nuclear factor kappa-B kinase subunit beta (Homo sapiens) (UniProt O14920).
T1 sequence (whole entry): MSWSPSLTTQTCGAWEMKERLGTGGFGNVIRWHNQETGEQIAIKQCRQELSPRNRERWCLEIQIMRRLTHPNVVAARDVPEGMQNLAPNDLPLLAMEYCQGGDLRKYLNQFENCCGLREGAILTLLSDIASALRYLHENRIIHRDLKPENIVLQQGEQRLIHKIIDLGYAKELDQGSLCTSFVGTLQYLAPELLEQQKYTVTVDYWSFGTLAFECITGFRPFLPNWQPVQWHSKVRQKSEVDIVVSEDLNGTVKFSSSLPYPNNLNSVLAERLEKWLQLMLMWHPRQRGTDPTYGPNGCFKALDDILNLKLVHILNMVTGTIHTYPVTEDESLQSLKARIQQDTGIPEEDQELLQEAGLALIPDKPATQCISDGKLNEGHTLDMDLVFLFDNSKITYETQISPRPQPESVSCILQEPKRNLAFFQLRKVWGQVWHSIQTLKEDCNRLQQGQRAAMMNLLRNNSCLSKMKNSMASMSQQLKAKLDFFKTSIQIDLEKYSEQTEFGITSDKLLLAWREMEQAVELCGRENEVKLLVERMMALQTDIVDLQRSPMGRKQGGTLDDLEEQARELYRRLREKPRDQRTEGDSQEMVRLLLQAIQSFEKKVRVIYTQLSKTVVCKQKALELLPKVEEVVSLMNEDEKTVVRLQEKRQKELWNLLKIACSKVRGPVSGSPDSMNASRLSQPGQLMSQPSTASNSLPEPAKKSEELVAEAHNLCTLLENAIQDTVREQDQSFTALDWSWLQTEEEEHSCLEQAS
In words: Inhibition of IKKbeta (unknown origin) at 10 uM relative to control.

In data set [5] the target is T2, Interleukin-1 receptor-associated kinase 4 (Mus musculus) (UniProt Q8R4K2).
T2 sequence (whole entry): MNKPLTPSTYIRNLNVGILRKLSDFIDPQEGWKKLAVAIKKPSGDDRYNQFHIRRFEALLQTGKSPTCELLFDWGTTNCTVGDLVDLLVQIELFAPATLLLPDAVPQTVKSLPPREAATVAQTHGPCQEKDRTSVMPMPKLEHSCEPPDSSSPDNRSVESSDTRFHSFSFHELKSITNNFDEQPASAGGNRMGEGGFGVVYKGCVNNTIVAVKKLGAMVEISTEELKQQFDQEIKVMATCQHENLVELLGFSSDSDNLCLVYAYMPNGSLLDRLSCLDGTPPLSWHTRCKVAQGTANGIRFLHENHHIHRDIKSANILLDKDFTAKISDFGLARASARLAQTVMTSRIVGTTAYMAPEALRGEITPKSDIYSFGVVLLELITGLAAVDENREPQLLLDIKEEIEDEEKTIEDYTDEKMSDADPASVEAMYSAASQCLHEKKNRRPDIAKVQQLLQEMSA
In words: Thermal stabilization of IRAK4 in mouse RAW264.7 cells at 10 uM measured after 4 hrs by CETSA. In kind it is cell-based.

Data set [6] concerns RAW264.7. In words: Antiinflammatory activity in LPS-induced mouse RAW264.7 cells assessed as inhibition of IL-6 mRNA transcription pretreated for 2 hrs followed by LPS stimulation and measured after 6 hrs by RT-qPCR analysis. In kind it is functional, cell-based. Conditions: dose 5-10 µM, time 8.0 hrs. A general note: Quantitative PCR measures a nucleic acid by following its amplification.

Data set [7] in a line: Stability of compound in rat plasma at 10 mg/ml incubated for 8 hrs and measured every 2 hrs hy HPLC analysis. In kind it is ADME, cell-free.
Data set [8] has as its system Mus musculus. As to the kind of experiment: Antiinflammatory activity in LPS induced ip dosed C57BL/6 mouse model of acute lung injury assessed as reduction in […] of lung preadministered for 30 mins followed by LPS administration and measured after 6 hrs. In kind it is functional, organism-based. Conditions: dose 20-40 mg/kg, time 6.5 hrs.
In data set [9] the test system is Mus musculus. In words: Antiinflammatory activity in male C57BL/6 mouse model of DSS-induced ulcerative colitis assessed as reversal of ruptured spleen at 10 to 20 mg/kg, po administered for 11 days with subsequent administration of DSS for 8 days by H and E staining based analysis. In kind it is functional, organism-based. The note with it: dose 10-20 mg/kg, time 11.0 day.

The nature of data set [10]: Stability of compound in enzyme-free simulated gastric fluid at 10 mg/ml incubated for 8 hrs and measured every 2 hrs hy HPLC analysis. Type of data set: ADME. The note with it: simulated gi fluid.

The term inhibition denotes the relative decrease from the control value, in per cent. For `COc1cc2c(O[C@H]3CC[C@@H](N)CC3)ncnc2cc1OCc1ccccc1`, the Drug uptake entry in data set [1] is “Active”. For the same compound, the outcome in data set [2], in data set [3], in data set [5] and in [9] was Active. For the same compound, in data set [4], the inhibition is -1.64%. Besides, the Activity result in data set [6] and in data set [8] was “Dose-Dependent Effect” in each case. The Stability result in [7] and in data set [10] was “Stable” throughout.
